From US9510592B2, “Pesticidal compositions and processes related thereto” (Dow AgroSciences LLC, priority 2012, dated 2016)
Read-outs that look alike come from different tables or passages of the source.

Tests used:
[1] = test system: Green Peach Aphid (Myzus persicae); assay: Bioassay on Green Peach Aphid (GPA), foliar spray on cabbage seedlings; format: in vivo; conditions: 72 h, corrected % control (Abbott), 200 ppm spray on cabbage seedlings, three days
Experimental: Certain molecules disclosed in this document were tested against GPA using procedures described in the following example. In the reporting of the results, the “GPA Rating Table” was used (See Table Section). Cabbage seedlings grown in 3-inch pots, with 2-3 small (3-5 cm) true leaves, were used as test substrate. The seedlings were infested with 20-50 GPA (wingless adult and nymph stages) one day prior to chemical application. Four pots with individual seedlings were used for each treatment. Test compounds (2 mg) were dissolved in 2 mL of acetone/MeOH (1:1) solvent, forming stock solutions of 1000 ppm test compound. The stock solutions were diluted 5× with 0.025% Tween 20 in water to obtain the solution at 200 ppm test compound. A hand-held aspirator-type sprayer was used for spraying a solution to both sides of […] leaves until runoff. Reference plants (solvent check) were sprayed with the diluent only containing 20% by volume of acetone/MeOH (1:1) solvent. Treated plants were held in a holding room for three days at approximately 25° C. and ambient relative humidity (RH) prior to grading. Evaluation was conducted by counting the number of live aphids per plant under a microscope. Percent Control was measured by using Abbott's correction formula (W. S. Abbott, “A Method of Computing the Effectiveness of an Insecticide” J. Econ. Entomol. 18 (1925), pp. 265-267) as follows. Corrected % Control=100*(X−Y)/X • where • X=No. of live aphids on solvent check plants and • Y=No. of live aphids on treated plants The results are indicated in the table entitled “Table 3: Assay Results” (See Table Section).

[2] = test system: Beet Armyworm (Spodoptera exigua); assay: Bioassay on Beet Armyworm (BAW), 128-well diet tray assay; format: in vivo; conditions: Spodoptera exigua, 168 h, percent mortality of second instar larvae, 50 μg/cm^2 on artificial diet, five to seven days, 25° C., read-out: BAW Rating
How it was run: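 Second-instar larvae (one to five per well) were placed on artificial diet surface-treated with 50 μg/cm^2 compound in acetone-water and held at 25 °C, 14:10 light-dark, for five to seven days. Percent mortality was averaged over eight wells.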

[3] = test system: Corn Earworm (Helicoverpa zea); assay: Bioassay on Corn Earworm (CEW), 128-well diet tray assay; format: in vivo; conditions: Helicoverpa zea, 168 h; percent mortality of second instar larvae, 50 μg/cm^2 on artificial diet, five to seven days, 25° C.; Table 3; read-out: CEW Rating
Experimental: (§1) Certain molecules disclosed in this document were tested against BAW and CEW and CL using procedures described in the following examples. In the reporting of the results, the “BAW & CEW & CL Rating Table” was used (See Table Section).
Bioassays On CEW (Helicoverpa zea)
Bioassays on CEW were conducted using a 128-well diet tray assay. one to five second instar CEW larvae were placed in each well (3 mL) of the diet tray that had been previously filled with 1 mL of artificial diet to which 50 μg/cm^2 of the test compound (dissolved in 50 μL of 90:10 acetone-water mixture) had been applied (to each of eight wells) and then allowed to dry. Trays were covered with a clear self-adhesive cover, and held at 25° C., 14:10 light-dark for five to seven days. Percent mortality was recorded for the larvae in each well; activity in the eight wells was then averaged. The results are indicated in the table entitled “Table 3: Assay Results” (See Table Section).

[4] = test system: Cabbage Looper (Trichoplusia ni); assay: Bioassay on Cabbage Looper (CL), 128-well diet tray assay; format: in vivo; conditions: percent mortality of second instar larvae, 50 μg/cm^2 on artificial diet, five to seven days, 25° C.; Table 3A
Experimental: as §1
Bioassays on CL (Trichoplusia ni)
Bioassays on CL were conducted using a 128-well diet tray assay. One to five second instar CL larvae were placed in each well (3 mL) of the diet tray that had been previously filled with 1 mL of artificial diet to which 50 μg/cm^2 of the test compound (dissolved in […] of 90:10 acetone-water mixture) had been applied (to each of eight wells) and then allowed to dry. Trays were covered with a clear self-adhesive cover, and held at 25° C., 14:10 light-dark for five to seven days. Percent mortality was recorded for the larvae in each well; activity in the eight wells was then averaged. The results are indicated in the table entitled “Table 3A: Assay Results” (See Table Section).

Structure (SMILES): Cc1cc(/C=C/C(c2cc(Cl)cc(Cl)c2)C(F)(F)F)cnc1C(=O)NCc1ccc(Cl)nc1 (stereo not shown) [AC60]
- pest or weed control at 200 ppm ([1]; Table 3, read-out: GPA Rating): 0 to 80%
- pest or weed control at 50 µg/cm2, 50 µg/cm2 ([2]; Table 3): 50 to 100%
- pest or weed control at 50 µg/cm2 [3]: 50 to 100%

Structure (SMILES): N#Cc1cc(/C=C/C(c2cc(Cl)c(Cl)c(Cl)c2)C(F)(F)F)ccc1-n1cncn1 (stereo not shown) [DC31]
- pest or weed control at 200 ppm ([1]; Table 3, read-out: GPA Rating): 0 to 80%
- pest or weed control at 50 µg/cm2, 50 µg/cm2 ([2]; Table 3): 50 to 100%
- pest or weed control at 50 µg/cm2 [3]: 50 to 100%

Structure (SMILES): O=C(CC(F)(F)F)NNC(=O)c1ccc(/C=C/C(c2cc(Cl)c(Cl)c(Cl)c2)C(F)(F)F)cc1Br (stereo not shown) [Compound F1]
- pest or weed control at 50 µg/cm2, 50 µg/cm2 ([2]; Table 3A): 50 to 100%
- CL Rating [4]: A (50-100)

Structure (SMILES): Cc1cc(/C=C/C(c2cc(Cl)cc(Cl)c2)C(F)(F)F)ccc1C(=O)N[C@H]1C[S@@+]([O-])C1 (stereo partly shown) [AC82]
- pest or weed control at 200 ppm ([1]; Table 3, read-out: GPA Rating): 0 to 80%
- pest or weed control at 50 µg/cm2, 50 µg/cm2 ([2]; Table 3): 50 to 100%
- pest or weed control at 50 µg/cm2 [3]: 50 to 100%

Structure (SMILES): NC(=O)c1ccc(/C=C/C(c2cc(Cl)cc(Cl)c2)C(F)(F)F)cc1 (stereo not shown) [AC2]
- melting point: 110 to 112 °C

Structure (SMILES): O=C(CC(F)(F)F)NCc1ccc(/C=C/C(c2cc(Cl)c(Cl)c(Cl)c2)C(F)(F)F)cc1Cl (stereo not shown) [CC10]
- pest or weed control at 200 ppm ([1]; Table 3, read-out: GPA Rating): 0 to 80%
- pest or weed control at 50 µg/cm2, 50 µg/cm2 ([2]; Table 3): 50 to 100%
- pest or weed control at 50 µg/cm2 [3]: 50 to 100%

Structure (SMILES): O=C(NCc1ccc(/C=C/C(c2cc(Cl)c(Cl)c(Cl)c2)C(F)(F)F)cc1)c1ccnc(Cl)c1 (stereo not shown) [CC13]
- pest or weed control at 200 ppm ([1]; Table 3, read-out: GPA Rating): 0 to 80%
- pest or weed control at 50 µg/cm2, 50 µg/cm2 ([2]; Table 3): 50 to 100%
- pest or weed control at 50 µg/cm2 [3]: 50 to 100%

Structure (SMILES): CCC(=O)NNC(=O)c1ccc(/C=C/C(c2cc(Cl)c(Cl)c(Cl)c2)C(F)(F)F)cc1Br (stereo not shown) [Compound F8]
- pest or weed control at 50 µg/cm2, 50 µg/cm2 ([2]; Table 3A): 50 to 100%
- CL Rating [4]: A (50-100)

Structure (SMILES): N#Cc1cc(/C=C/C(c2ccc(Cl)c(Cl)c2)C(F)(F)F)ccc1-n1cncn1 (stereo not shown) [DC28]
- pest or weed control at 200 ppm ([1]; Table 3, read-out: GPA Rating): 0 to 80%
- pest or weed control at 50 µg/cm2, 50 µg/cm2 ([2]; Table 3): 50 to 100%
- pest or weed control at 50 µg/cm2 [3]: 50 to 100%

Structure (SMILES): O=C(NCCNC(=O)C(F)(F)F)c1ccc(/C=C/C(c2cc(Cl)c(Cl)c(Cl)c2)C(F)(F)F)cc1Br (stereo not shown) [Compound F33]
- pest or weed control at 200 ppm ([1]; Table 3A, read-out: GPA Rating): 0 to 80%
- pest or weed control at 50 µg/cm2, 50 µg/cm2 ([2]; Table 3A): 50 to 100%
- CL Rating [4]: A (50-100)

Structure (SMILES): Cc1cc(/C=C/C(c2cc(Cl)cc(Cl)c2)C(F)(F)F)ccc1C(=O)NC(C)c1ccc(Cl)nc1 (stereo not shown) [AC44]
- pest or weed control at 200 ppm ([1]; Table 3, read-out: GPA Rating): 0 to 80%
- pest or weed control at 50 µg/cm2, 50 µg/cm2 ([2]; Table 3): 50 to 100%
- pest or weed control at 50 µg/cm2 [3]: 50 to 100%

Structure (SMILES): O=C(CNC(=O)c1ccc(/C=C/C(c2cc(Cl)cc(Cl)c2)C(F)(F)F)cc1Cl)NCC(F)(F)F (stereo not shown) [AC57]
- pest or weed control at 200 ppm ([1]; Table 3, read-out: GPA Rating): 0 to 80%
- pest or weed control at 50 µg/cm2, 50 µg/cm2 ([2]; Table 3): 50 to 100%
- pest or weed control at 50 µg/cm2 [3]: 50 to 100%

Structure (SMILES): O=C(CC(F)(F)F)NC1CCc2cc(/C=C/C(c3cc(Cl)c(Cl)c(Cl)c3)C(F)(F)F)ccc21 (stereo not shown) [BC4, (E)-3,3,3-Trifluoro-N-(5-(4,4,4-trifluoro-3-(3,4,5-trichlorophenyl)but-1-enyl)-2,3-dihydro-1H-inden-1-yl)propanamide]
- pest or weed control at 200 ppm ([1]; Table 3, read-out: GPA Rating): 0 to 80%
- pest or weed control at 50 µg/cm2, 50 µg/cm2 ([2]; Table 3): 50 to 100%
- pest or weed control at 50 µg/cm2 [3]: 50 to 100%

Structure (SMILES): CCC(=O)N(C)NC(=O)c1ccc(/C=C/C(c2cc(Cl)c(Cl)c(Cl)c2)C(F)(F)F)cc1Br (stereo not shown) [Compound F11, (E)-2-Bromo-N′-methyl-N′-propionyl-4-(4,4,4-trifluoro-3-(3,4,5-trichlorophenyl)but-1-en-1-yl)benzohydrazide]
- pest or weed control at 50 µg/cm2, 50 µg/cm2 ([2]; Table 3A): 50 to 100%
- CL Rating [4]: A (50-100)

Structure (SMILES): O=C(CC(F)(F)F)NCc1ccc(/C=C/C(c2cc(Cl)c(F)c(Cl)c2)C(F)(F)F)cc1 (stereo not shown) [CC16]
- pest or weed control at 200 ppm ([1]; Table 3, read-out: GPA Rating): 0 to 80%
- pest or weed control at 50 µg/cm2, 50 µg/cm2 ([2]; Table 3): 50 to 100%
- pest or weed control at 50 µg/cm2 [3]: 50 to 100%
